ChEMBL document CHEMBL3507680, “University of Dundee, Gates Library screen for HepG2 cell viability”

Assay: Human HepG2 cell viability assay in 384 well format
Assay type: toxicity, cell-based
Design: dose 125 nL, time 70.5 hour; cytotoxicity at 70.5 h: concentration not given beside the values
Conditions: HepG2 cells, read-out: Inhibition

Row | Compound | cytotoxicity at 70.5 h [%]
1 | COc1cccn(CC(=O)N(C)CCSC)c1=O | -12.7
2 | O=C(NCC1CC1)C1CN(C(=O)c2ccncc2)CC12CCOCC2 (centres undefined) | 3.6
3 | Cc1ccccc1C(=O)NC[C@@H]1CCN(C(=O)CN2CCCC2)C[C@H]1O | -5.06
4 | COCC(=O)N1CCC(c2nc3ccc(N4CCCC4)cn3n2)CC1 | -5.18
5 | CC(C)C(=O)N1CCC(c2nc3c([nH]2)CCCNC3=O)CC1 | -6.35
6 | NC(=O)CCC(=O)N1CCc2[nH]nc(-c3ccc4c(c3)OCO4)c2C1 | -5.52
7 | CN(C)C(=O)[C@H]1C[C@@H]2CCN(Cc3ccoc3)C[C@@H]2O1 | -13.4
8 | COc1cccc(CC(=O)N2Cc3nccn3CC(CN(C)C)C2)c1 (centres undefined) | -0.154
9 | O=S(=O)(Cc1ccccc1)NCCNc1ccc(-n2cccc2)nn1 | -13.6
10 | CC(NC(=O)NCc1ccccc1)(C(=O)O)c1ccco1 (centres undefined) | -9.81
11 | CN(C)[C@@H]1CCN(C(=O)c2ccsc2)[C@H]1Cc1cccnc1 | 2.91
12 | O=C(O)c1ccnc(-c2ccnc(N3CCCCCC3)n2)c1 | 17.6
13 | CC(=O)NCC(=O)N1CCC(C2CCN(Cc3ccc(Cl)cc3)C2)CC1 (centres undefined) | -2.13
14 | Cc1cc(C(C)(O)CNC(=O)c2ccc(Br)o2)c(C)o1 (centres undefined) | -0.275
15 | CC(C)C(NC(=O)NCCNc1ncccn1)c1cccs1 (centres undefined) | -6.23
16 | CN(Cc1ccc2nsnc2c1)CC1(O)CNCCOC1 (centres undefined) | -6.32
17 | Cc1ccc2cc(C(=O)NCCN3CCS(=O)(=O)CC3)c(C)nc2c1 | -15.9
18 | CCN(C)[C@H]1CN(C(=O)c2cccc(N3CCS(=O)(=O)CC3)c2)C[C@@H]1O | -7.37
19 | COc1cccc2c1N(Cc1nc3c(cnn3C)c(=O)[nH]1)CCC2 | 22.2
20 | Cc1ccc(S(=O)(=O)NCCCN2CCC(O)CC2)cc1Cl | 4.78
21 | CSCC(C)(O)CNc1ncccc1I (centres undefined) | 7.7
22 | O=C(Nc1ccc(N2CCCC2)nc1)N1CCc2ccccc2C1 | 3.91
23 | CCN(CC)C(=O)CSc1nc2nc(C)ccc2o1 | 11.9

Row | Compound | cytotoxicity at 70.5 h [%]
24 | CNC(=O)CNCc1c[nH]nc1-c1cc2ccccc2o1 | -1.2
25 | O=C(O)c1cc(-c2ccncc2)cc(S(=O)(=O)NCc2ccccn2)c1 | -4.27
26 | CCC(C#N)NC(=O)c1sccc1OC (centres undefined) | -10.7
27 | CC(C)c1nc(CN(C)C(=O)c2ccc3c(c2)OCC(=O)N3)cs1 | -6.75
28 | Cc1ncsc1C(=O)N1CCCC1c1c(C)nn(C)c1Cl (centres undefined) | -13.8
29 | CCCN1CCCn2nc(CNS(=O)(=O)c3ccc(F)cc3)cc2C1 | 4.7
30 | O=C(N1CCCC1)N1C[C@@H](OCc2cccnc2)[C@H]2OCCC[C@H]21 | 12.7
31 | CC(=O)N1CCCC2(CN(Cc3ccc(C)s3)CCO2)C1 (centres undefined) | 0.871
32 | CN1CCN(C2CCCC2)C(CCO)C1 (centres undefined) | -1.81
33 | CCN(Cc1ccoc1)C(=O)Nc1ccccc1CN(C)C(C)=O | 22
34 | Cc1nccn1CCC1CCCCN1Cc1cnc(N(C)C)nc1 (centres undefined) | -3.91
35 | CN(C)C(=O)CN1CCC2(CCCN(c3ncc(F)cn3)C2)C1=O (centres undefined) | 16.4
36 | N#CC1(C(=O)N2C[C@H]3CC[C@@H]2CN(Cc2cscn2)C3)CCOCC1 | 15.7
37 | COCCN1CCCC12CCCN(c1ncccn1)C2 (centres undefined) | -2.34
38 | COCCn1ccnc1CN1CCc2[nH]cnc2C1c1ccccn1 (centres undefined) | -11.2
39 | COc1cc(CNC(=O)C(C)SC)cc(Br)c1OC (centres undefined) | -8.14
40 | CO[C@@H]1CCN(Cc2ccoc2)C[C@@H]1Cc1ccccc1 | 1.1
41 | Cc1ccccc1C(=O)N1CC2(COC(C)(C)OC2)C1 | 9.04
42 | CSc1ccc(CN(C(=O)c2cc(=O)[nH]c(=O)[nH]2)C2CC2)cc1 | 6.51
43 | c1csc(CN2CCn3c(Cn4cncn4)cnc3C2)n1 | -17.2
44 | O=C(c1ccc(Cl)cc1)N1CC2(CCNC2)OCc2ccccc21 (centres undefined) | -5.43
45 | Cc1ncc(CN2CCC(n3cc(-c4ccc(F)cc4)nn3)CC2)cn1 | -2.17
46 | Cc1cnn(CCNCc2ccc(OCc3ccncc3)cc2)c1 | 0.513

Row | Compound | cytotoxicity at 70.5 h [%]
47 | N#Cc1nccnc1NC1CCN(c2c(F)cccc2F)C1 (centres undefined) | -4.72
48 | O=C(NCCN1CCCCCC1=O)c1n[nH]c(=O)c2ccccc12 | -20.8
49 | CC(=O)NCC(=O)N(CCN1CCOCC1)Cc1ccco1 | 3.23
50 | Cc1cccc(NC(=O)c2cccc(OCc3nnnn3C)c2)n1 | 18.7
51 | Cc1ccc(-n2ccc3nc(N4CCCC4)ncc3c2=O)cc1C | 9.54
52 | Fc1cccc(C2(CNC3CCOC4(CCOCC4)C3)CCOCC2)c1 (centres undefined) | -5.85
53 | CCOCC(=O)N1CC[C@H]2[C@@H]1CCC(=O)N2Cc1csc(C)n1 | -10.5
54 | CC(C)Oc1ccc(CNC(=O)CCN2C(=O)CCC2=O)cc1F | -3.49
55 | Cc1ncsc1CCN(C)C(=O)CN1C(=O)OC[C@@H]1c1ccccc1 | 4.46
56 | c1nc2c(c(NC3COC4(CCCC4)C3)n1)CCNCC2 (centres undefined) | -5.17
57 | CNC(=O)CCc1cc(C)nc(C2CCN(c3ccccc3)CC2)c1 | -3.63
58 | CC1(NC(=O)Cc2csc(NC(=O)c3ccccc3)n2)CCS(=O)(=O)C1 (centres undefined) | -71.2
59 | COc1cccc(CC(=O)N2CCCC2c2nc(C)c(C)c(O)n2)c1 (centres undefined) | -2.86
60 | O=C1OCCCN1Cc1nc(-c2ccc(N3CCCCC3)cc2)no1 | -11.4
61 | Cc1nn(C)c(C)c1CCC(=O)N1CCCC(n2cccn2)C1 (centres undefined) | 21.7
62 | C[C@H](NC(=O)c1cccc(CCC(C)(C)O)c1)C(N)=O | -0.496
63 | CCCc1cc(C(=O)N2CCOC(c3nc(-c4cccs4)no3)C2)no1 (centres undefined) | 1.76
64 | Cc1nc(CN2CCc3ccc(S(N)(=O)=O)cc32)oc1C | 0.0206
65 | CNc1cc(N2CCCC2CNCc2ccccn2)ncn1 (centres undefined) | 14.8
66 | CN1CCc2nc3c(c(N)c2C1)CCCN3C | -16.1
67 | CCC(=O)N1CCC(c2ncncc2C)CC1 | -1.94
68 | CC(C(=O)NCCc1cccs1)N1CCC(n2ccnc2)CC1 (centres undefined) | -1.16
69 | CCc1nc(N2CCN(Cc3ncccc3C)CC2)c2cnn(C)c2n1 | -4.75

Row | Compound | cytotoxicity at 70.5 h [%]
70 | COCCCN1CC2(CCCCN2C(=O)COC)CC1=O (centres undefined) | -8.44
71 | O=C(c1ccncn1)N1CCC[C@]2(C[C@@H](OCc3ccccn3)CO2)C1 | 10.5
72 | Cc1ccccc1CN1CCN(CC(=O)Nc2cccnc2)CC1 | 5.17
73 | Cc1cnn(CC(C)NCc2ccc(S(C)(=O)=O)cc2)c1 (centres undefined) | -1.78
74 | COc1ccc2c(c1)CN(Cc1ccco1)C(=O)CCN2CC(C)(C)O | 1.21
75 | COc1ncccc1NC(=O)N1CCC(CNC(C)=O)CC1 | -7.14
76 | Cc1nn(C)c2nc(N(CCN(C)C)C3CCCC3)sc12 | 2.63
77 | CCC(C)c1ccc(NC(=O)C2CCN(C(=O)N(C)C)CC2)cc1 (centres undefined) | -4.2
78 | c1ccc2ncc(CC3CCNC3)cc2c1 (centres undefined) | 19.8
79 | CN(CC(N)=O)C(=O)C1Cc2cc(Cl)ccc2O1 (centres undefined) | -5.33
80 | Cc1ccsc1CNC(=O)c1ccc(N2CCNC2=O)cc1 | -10.8
81 | CCOC1COC2(CCN(Cc3ccc4c(c3)OCO4)CC2)C1 (centres undefined) | -9.87
82 | O=C(Nc1cccc(CNCc2csc(Br)c2)c1)C1CC1 | 4.95
83 | CN(C)CC(C)(C)Cn1cnc(-c2ccccc2)c1-c1cccc(O)c1 | -10.8
84 | Cc1cccc(CN2C[C@@H]3CN(C(=O)C4CCOC4)C[C@@H]3C2=O)c1 (some centres undefined) | 2.05
85 | O=C(NC1CCN(C2CC2)CC1)c1[nH]nc(C2CC2)c1Cl | -4.43
86 | CN(C)C(=O)CO[C@H]1CN(Cc2nccs2)[C@@H]2COC[C@H]12 | -9.59
87 | Cc1nc(N2CCOCC2)ncc1-c1cc(O)nc(N2CCCC2)n1 | -2.77
88 | CCOCCC(=O)NC1(c2cccc(Br)c2)CC1 | -3.83
89 | Clc1ccc(NCc2nnc(C3CC3)o2)cc1Cl | 24.8
90 | COCC(=O)N1CCC(c2cc(-c3ccc(OC)cc3)n[nH]2)C1 (centres undefined) | 10.4
91 | COc1ccc(CC(=O)N2C[C@@H]3COC[C@]3(CN(C)C)C2)cc1 | -17.9
92 | COCCn1ccc(NCc2cc3cc(F)ccc3o2)n1 | -6.3

Row | Compound | cytotoxicity at 70.5 h [%]
93 | CC1(C)COCCN1C(=O)c1ccc(Cn2cncn2)cc1 | -9.35
94 | COc1ccc(C(C(=O)O)N2CCN(C3CCCCC3)CC2)cc1OC (centres undefined) | 13.6
95 | CCn1cc2c(n1)CN(S(=O)(=O)c1cn(C)cn1)CC2COC (centres undefined) | -3.24
96 | CCOCc1cnc2n1CCN(C(=O)Cc1cccs1)C2C (centres undefined) | -7.5
97 | Cc1ccc(F)cc1NC(=O)CCn1cncn1 | -8.38
98 | Cc1noc(C)c1CN1CCCC2(CCN(C(=O)C3CC3)C2)C1 (centres undefined) | -11.8
99 | Clc1cncc(N2CCN(Cc3ccon3)CC2)n1 | -3.48
100 | O=C(NCc1ccco1)[C@@H]1C[C@H]2OCC[C@H]2N(c2ncc(F)cn2)C1 | -14.6
101 | O=C(c1ccno1)N1CCC2(CC1)C(=O)N(CC1CC1)c1ccccc12 | -17.3
102 | CC(CCNC(=O)N(C)CC1CCOCC1)N1CCCCC1 (centres undefined) | -7.97
103 | COc1ccccc1CCNC(=O)N1CCCC(c2nncn2C)C1 (centres undefined) | -1.17
104 | CCCc1nc(N2CCN(CC)CC2)c2c(n1)c(C)nn2CC | -5.26
105 | OC1(CNCc2noc(Cc3ccccc3)n2)CNCCOC1 (centres undefined) | -4.33
106 | Cc1cc(Cc2ccc(F)cc2)cc(C2CCCNC2)n1 (centres undefined) | 16.9
107 | Cc1noc(C)c1CN(C)C(=O)NC1CCOCC1 | 21
108 | COc1ccc2nc(C[C@@H]3C[C@@H](C(C)C)[C@H](CN(C)C)C=C3C)[nH]c2n1 | -3.85
109 | Cc1cc(C)n(CC2CN(CC(=O)N3CCC3)CCO2)n1 (centres undefined) | -13.4
110 | CCO[C@H]1CCN(S(=O)(=O)c2cn(C)cn2)[C@H]1Cc1ccccc1 | -1.16
111 | c1cncc(-c2nnn3c2COCC(CNCC2CCOCC2)C3)c1 (centres undefined) | 8.92
112 | CCc1c(C)n(C)c2nc3ccccc3n2c1=O | 8.75
113 | CC(O)CN(C)c1cc(C(F)(F)F)nc(-c2cccnc2)n1 (centres undefined) | -3.49
114 | CCc1nc(CNc2nc3c(s2)c(C)nn3C)cs1 | -3.7
